Measurements reported in US20250249025A1, “DRUG DELIVERY CARRIER UTILIZING PROPERTY OF D-ALLOSE BEING UPTAKEN BY CANCER CELL, DRUG DELIVERY METHOD, AND COMPOSITION FOR TREATING RENAL CELL CARCINOMA” (NATIONAL UNIVERSITY CORPORATION KAGAWA UNIVERSITY, priority 2019, published 2025).

Tests used:
[1] = test system: human bladder carcinoma cell line 253J; experiment: Rare sugar uptake experiment, sugar content in disrupted cell suspension of 253J; type: cell-based
Description: (§1) An uptake amount of a rare sugar, which had been added to a medium, into carcinoma cells was analyzed using the cell lines of three types of cancers. As the rare sugar, four kinds, that is, D-allose, D-allulose (D-psicose), L-allulose (L-psicose), and allitol were used, while D-glucose and fructose were used as a monosaccharide which was not a rare sugar.
(§2) Cells of each of the cell lines were cultured in RPMI-1640 media and during culturing, six sugars were each added to the resulting media and cultured. After culturing, an amount of each sugar taken up into the cells was analyzed. The medium to which no sugar was added during culturing was used as a control.
(§3) Used were human bladder carcinoma cell lines (RT112, 253), and J82), human prostatic carcinoma cell lines (LNCa, Du145, and PC-3), and human renal cell carcinoma cell lines (ACHN, Caki-I, and Caki-II).
(§4) After cells were cultured in RPMI-1640 (2000 mg D-glucose/L) media, the above monosaccharides and rare sugars were added to the resulting media, respectively. Described specifically, they were following seven combinations: RPMI-1640 alone (control), RPMI-1640+D-glucose, RPMI-1640+L-allulose, RPMI-1640+D-allulose, RPMI-1640+D-fructose, RPMI-1640+D-allose, and RPMI-1640+D-allitol. The final concentration of the sugar in the medium was adjusted to 10 mM and no sugar was added in the control.
(§5) Five-ml portions of a 3.0×10^4 cells/ml cell suspension prepared using RPMI-1640 were seeded in dishes having a diameter of 6 cm (1.5×10^5 cells/dish) and cultured for 24 hours in the RPMI-1640 medium containing 2000 mg/l of D-glucose as a nutrient source. Twenty-four hours later, the media were changed to the culture solutions containing the monosaccharides and rare sugars described above in 2), respectively, followed by culturing for 48 hours.
(§6) After culturing for 48 hours, the attached human carcinoma cells were mechanically separated and collected in a Spitz tube together with the culture solution and floating cells. After the supernatant formed by centrifugation (4° C., 1200 rpm, and 5 minutes) was removed to obtain cell pellets alone, 5 ml of a phosphate buffer physiological saline (PBS) was added for the purpose of washing to obtain a cell suspension of the cell pellets. A gain, the resulting cell suspension was centrifuged at 4° C. and 1200 rpm for 5 minutes and the supernatant was removed. To the cell pellets after washing was added 1 ml of pure water to suspend them therein. Ultrasonic disruption (intensity: 40%, 30 seconds) was then performed and the monosaccharide in the disrupted cell suspension was labeled with ABEE, followed by analysis by HPLC. From the area thus obtained, the sugar content in the cells was determined using a calibration curve. With respect to the ketose, two peaks were found after labeling with ABEE so that the sugar content in the cells was determined from the calibration curves of both peaks.

[2] = test system: human bladder carcinoma cell line J82; experiment: Rare sugar uptake experiment, sugar content in disrupted cell suspension of J82; type: cell-based
Description: as §1, §2, §3, §4, §5, §6

[3] = test system: human renal cell carcinoma cell line ACHN; experiment: Rare sugar uptake experiment, sugar content in disrupted cell suspension of ACHN; type: cell-based
Description: as §1, §2, §3, §4, §5, §6

Caki-I tumor = experiment: D-allose concentration in tumor after intraperitoneal injection, Caki-I xenograft mouse model; type: in vivo; details: Caki-I xenograft mice, 400 mg/kg intraperitoneal
Description: (§7) The experiment of the present example used two human renal cell carcinoma cell lines (Caki-I and ACHN). Each cell was cultured under the wet environment of 37° C. and 5% CO2 by using a RPMI-1640 culture solution (2000 mg D-glucose/L) containing a 10% fetal calf serum, a HEPES buffer, and penicillin-streptomycin.
(§8) With respect to a renal cell carcinoma xenograft mouse model, a 1.0×10^5 cells/ml of a cell suspension was obtained by adjusting the cultured cells with a MEM culture solution and then 0.1 ml of the resulting suspension was injected into the femoral subcutaneous tissue of Female athymic nude mice (BALB/c-nu/nu, 6-week-old). After checking that the tumor volume was 200 mm^3 or more one week after the injection, the mice were provided for the experiment thereafter.
A 400 mg/kg/0.4 mL solution of rare sugar D-allose was prepared using physiological saline and was intraperitoneally injected into the xenograft mouse models of two human renal cell carcinoma cell lines (Caki-I and ACHN) through a 27 G needle. A tumor was enucleated from the mouse before […] administration and 1 hour, 2 hours, and 4 hours after the administration. […] A monosaccharide in the supernatant thus obtained was labeled with ABEE (4-aminobenzoic acid ethyl ester) and the quantitative analysis of D-allose was performed by HPLC (high performance liquid chromatography). […]

[4] = test system: xenograft mouse model made using Caki-I; experiment: Change of tumor volume by intraperitoneal D-allose injection, Caki-I xenograft mouse model; type: in vivo, mice
Description: as §7, §8
The day when the tumor size of the renal cell carcinoma xenograft mouse models became 200 mm^3 or more was called day 0 and the intraperitoneal injection of a D-allose-containing solution was started from day 1. The solution injected is 0.4 mL of physiological saline or a solution obtained by dissolving 100 mg/kg or 400 mg/kg of D-allose in 0.4 mL physiological saline. The resulting solution was intraperitoneally injected into three groups of mice (Control, 100 mg/kg of D-allose, and 400 mg/kg of D-allose) once a day for 5 weeks in total. The body weight of the mice and the long and short diameters of the tumor were measured over time twice a week. It is to be noted that the tumor volume was obtained as a product of long diameter×short diameter×short diameter of the tumor×0.5. On day 35 after the intraperitoneal injection was started, the tumor as well as the liver and kidney were excised from the mice and provided for the experiment performed thereafter.

[5] = test system: xenograft mouse model made using ACHN; experiment: Change of tumor volume by intraperitoneal D-allose injection, ACHN xenograft mouse model; type: in vivo, mice; details: 400 mg/kg intraperitoneal once a day, on and after day 13, Mann-Whitney U test
Description: as §7, §8
The day when the tumor size of the renal cell carcinoma xenograft mouse models became 200 mm^3 or more was called day 0 and the intraperitoneal injection of a D-allose-containing solution was started from day 1. The solution injected is 0.4 mL of physiological saline or a solution obtained by dissolving 100 mg/kg or 400 mg/kg of D-allose in 0.4 mL physiological saline. […] The body weight of the mice and the long and short diameters of the tumor were measured over time twice a week. […]

Question: What does the source list for O=C[C@H](O)[C@H](O)[C@H](O)[C@H](O)CO [D-allose]?
Answer: D-glucose content in cell ([1]; 253J, named sugar added to RPMI-1640 at 10 mM, 48 hours, HPLC after ABEE labeling): 11.5 µg; Content in cell of the added sugar ([1]; human, 48 h, 10 mM): 0.0 µg; D-glucose content in cell ([2]; J82, named sugar added to RPMI-1640 at 10 mM, 48 hours, HPLC after ABEE labeling): 11.2 µg; Content in cell of the added sugar ([2]; human, 48 h, 10 mM): 0.0 µg; D-glucose content in cell ([3]; ACHN, named sugar added to RPMI-1640 at 10 mM, 48 hours, HPLC after ABEE labeling): 1.8 µg; Content in cell of the added sugar ([3]; human, 48 h, 10 mM): 11.2 µg; D-allose in tumor one hour after intraperitoneal injection (Caki-I tumor; HPLC, FIG. 4): detected; Time after injection at which D-allose concentration in tumor became the highest (Caki-I tumor; sampled 1, 2, 4 hours): one; Tumor volume versus Control group ([4]; 100 mg/kg intraperitoneal once a day, on and after day 31, Mann-Whitney U test): significantly smaller than that of the Control group; Tumor volume versus tumor volume before administration ([4]; 400 mg/kg intraperitoneal once a day, on and after day 16): significantly smaller than the tumor volume before administration; Tumor volume versus Control group ([4]; 400 mg/kg intraperitoneal once a day, on and after day 16, Mann-Whitney U test): significantly smaller than that of the Control group; Tumor volume versus Control group [5]: significantly smaller than the Control group
